Assay results published in patent US10889563B2, “Deoxyuridine triphosphatase inhibitors” (University of Southern California, priority 2013, dated 2021).

Assays:
HCT116 cells [1] = assay: Colony formation assay, HCT116; format: cell-based; settings: for colonies formed, combination with FUdR: HCT116, increasing concentrations of compound plus fixed 0.5 μmol/L FUdR, vs single agents
Method: Colony forming assay showing the ability of colon (SW620, HCT 116), non-small cell lung (A549, H460, H1299 and H358) and breast (MCF7) cancer cells to survive and proliferate following transient 24 hour exposure to single agent PCI 1013, FUdR and combinations. Specifically, cells were seeded at densities between 50 and 100 cells/well in 24-well plates. Twenty-four hours later, cells were treated with increasing concentrations of PCI 10213, a fixed dose of FUdR and combinations of these. After 24 hours, drug was removed, cells were rinsed and allowed to outgrow for 10-14 days. At the conclusion of the outgrowth, cells were fixed in 60% ice cold methanol and stained with 0.1% crystal violet, scanned and counted. Data is presented as percentage of untreated controls (mean±SD). Fraction affected and combination indexes were calculated according to the method of Chou and Talalay where <1 is indicative of a synergistic drug interaction. […]
(§1) In colorectal cancer cells, concentrations of PCI 10213 ranging from 3.1 μmol/L to 50 μmol/L were combined with 0.5 μmol/L FUdR in HCT116 cells and 1 μmol/L FUdR in SW620 cells.

SW620 cells [2] = assay: Colony formation assay, SW620; format: cell-based
Method: (§2) Colony forming assay showing the ability of colon (SW620, HCT 116), non-small cell lung (A549, H460, H1299 and H358) and breast (MCF7) cancer cells to survive and proliferate following transient 24 hour exposure to single agent PCI 1013, FUdR and combinations. Specifically, cells were seeded at densities between 50 and 100 cells/well in 24-well plates. Twenty-four hours later, cells were treated with increasing concentrations of PCI 10213, a fixed dose of FUdR and combinations of these. After 24 hours, drug was removed, cells were rinsed and allowed to outgrow for 10-14 days. At the conclusion of the outgrowth, cells were fixed in 60% ice cold methanol and stained with 0.1% crystal violet, scanned and counted. Data is presented as percentage of untreated controls (mean±SD). Fraction affected and combination indexes were calculated according to the method of Chou and Talalay where <1 is indicative of a synergistic drug interaction.
as §1

A549 cells [3] = assay: Colony formation assay, A549; format: cell-based; settings: A549, 12.5 and 25 μmol/L compound plus 1 μmol/L FUdR, vs vehicle-treated controls
Method: as §2
(§3) Subsequently, increasing concentrations of PCI 10213 were combined with a fixed dose of FUdR to evaluate the combined drug effect. In NSCLC cells, concentrations of PCI 10213 ranging from 3.1 μmol/L to 25 μmol/L were combined with 1 μmol/L FUdR. […] The effectiveness of this combination was pronounced in A549 and H460 cells where 12.5 and 25 μmol/L PCI 10213 combined with 1 μmol/L FUdR reduced cell viability by >95% compared to vehicle-treated controls.

H460 cells = assay: Colony formation assay, H460; format: cell-based; settings: H460, 12.5 and 25 μmol/L compound plus 1 μmol/L FUdR, vs vehicle-treated controls
Method: as §2, §3

[4] = system: colorectal (HCT116), breast (MCF-7) and non-small cell lung (H1299, A549, H358 and H460) cell line models; assay: Colony formation assay, all cell lines evaluated; format: cell-based
Method: as §2, §3

[5] = system: NSCLC cells (H1299, A549, H358 and H460); assay: Colony formation assay, NSCLC cells; format: cell-based; settings: 3.1 to 25 μmol/L compound plus 1 μmol/L FUdR, vs single agents
Method: as §2, §3

HCT116 cells [6] = settings: for single agent activity (growth inhibition vs vehicle): up to 75 μmol/L
[7] = target: T1, Recombinant human deoxyuridine nucleotidohydrolase (dUTPase) (Homo sapiens, UniProt P33316); assay: Fluorescence-based dUTPase inhibition assay (Example 23; 2.5 ng dUTPase, 10 min at 37° C.); format: biochemical; parameters: made in house
T1 sequence (P33316 1-164 isoform P33316-2): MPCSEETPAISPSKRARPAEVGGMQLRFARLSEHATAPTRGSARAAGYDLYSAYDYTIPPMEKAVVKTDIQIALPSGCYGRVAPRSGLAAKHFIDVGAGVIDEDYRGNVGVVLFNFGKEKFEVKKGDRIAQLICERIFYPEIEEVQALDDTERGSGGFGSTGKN
From the text: PCI 10586, 10585 and 10213 were suspended in DMSO at a concentration of 100 mmol/L, fluorodeoxyuridine (FUdR) was obtained from Sigma (St Louis, Mo.) and maintained in sterile double-distilled water at stock concentrations of 50 mmol/L. Recombinant human deoxyuridine nucleotidohydrolase (dUTPase) was expressed and purified as described previously [Please provide reference or confirm as noted above].
The diastereomer compounds were isolated by preparative chiral HPLC and screened in a novel fluorescence-based assay as described in Wilson et al. (2011) Nucleic Acids Res., September 1 39(17). […] The subsequent fluorescence detection step involved five 10 min cycles at 60° C. to completion.

A549 cells [8] = assay: MTS growth inhibition assay, A549; settings: A549, 72 hours, 100 μmol/L single agent
Method: (§4) The Cell Titer^96 AQueous MTS assay (Promega) was carried out according to the manufacturers guidelines. […] The combination effect was determined by the combination index (CI) method utilizing Calcusyn software (Biosoft, Ferguson, Mo.). Fraction affected (FA) was calculated from the percent growth inhibition: FA=(100−% growth inhibition)/100. CI values <1, synergism; 1-1.2, additive and >1.2, antagonism.
(§5) The NSCLC cell lines A549 and H1299 were exposed to increasing concentrations of each agent for 72 hours and growth inhibition was directly compared to vehicle-treated controls.

SW620 cells [9] = assay: MTS growth inhibition assay, SW620; settings: for single agent activity / decrease in proliferation / single agent activity (growth inhibition vs vehicle): SW620, 72 hours; for single agent activity / decrease in proliferation: 100 μmol/L single agent; for single agent activity (growth inhibition vs vehicle): up to 75 μmol/L
Method: as §4
HCT116 and SW620 cells were exposed to increasing concentrations of each agent for 72 hours and growth inhibition was directly compared to vehicle-treated controls.

H1299 cells = assay: MTS growth inhibition assay, H1299; settings: H1299, 72 hours, 100 μmol/L single agent
Method: as §4, §5

[10] = target: T1, Recombinant human deoxyuridine nucleotidohydrolase (dUTPase); assay: Fluorescence-based dUTPase inhibition assay (Example 19; 5 ng dUTPase, 8 min at 37° C.)
From the text: All drugs stocks were aliquoted and diluted as appropriate prior to use. The oligonucelotide primer, templates and fluorophore- and quencher-labeled detection probes are synthesized by Integrated DNA Technologies (Coralville, Iowa), subjected to polyacrylamide gel electrophoresis purification and reconstituted in Omnipur sterile nuclease-free water (EMD Chemicals USA, Gibbstown N.J.) at a stock concentration of 100 μmol/L. The two non-emissive (dark) quenching molecules incorporated into the detection probes include the Iowa black fluorescein quencher (IBFQ; absorption max 531 nm) and ZEN (non-abbreviation; absorption max 532 nm). The fluorescent label utilized was 6-FAM (5′-carboxyfluorescein; excitation max.=494 nm, emission max.=520 nm). Probes were further diluted to a working stock of 10 μmol/L and aliquoted to avoid repeated freeze/thaw cycles. AmpliTaq Gold DNA Polymerase, GeneAmp 10×PCR Buffer 2, MgCl2 and MicroAmp Optical 96-well Reaction Plates were purchased from Applied Biosystems (Carlsbad, Calif.). dNTPs were purchased individually at stock concentrations of 100 mmol/L from New England Biolabs at HPLC-certified >99% purity (Ipswich, Mass.).
Reaction mixtures contained primer, probe and template at an equimolar final concentration of 0.4 μmol/L. Magnesium chloride (MgCl2) was included at a final concentration of 2 mmol/L. Non-limiting dNTPs were included in the reaction mix in excess at a final concentration of 100 μmol/L (dUTP/dTTP was excluded). AmpliTaq Gold DNA polymerase was added at 0.875 U/reaction, 2.5 μl of 10×PCR buffer 2 added and nuclease-free ddH2O added to a final reaction volume of 25 μl. For dUTP inhibition analysis, the volume of ddH2O was further modified to accommodate an additional 1 μl of dUTPase (10 ng/μl) and 1 μl of inhibitor or DMSO control. Thermal profiling and fluorescence detection was performed using the ‘isothermal’ program on board an Applied Biosystems 7500 Real-Time PCR System. For analysis of dNTPs, the thermal profile consisted of an 8 min 37° C. step followed by a 10 min 95° C. step to ‘hot-start’ the Taq polymerase and a primer extension time of up to 30 min at 60° C. depending on the application. Raw fluorescence spectra for 6-FAM was measured using filter A at specified time intervals to follow assay progression using Sequence Detection Software (SDS Version 1.4, Applied Biosystems) and exported and analyzed in Microsoft Excel (Microsoft, Redmond Wash.) and Prism (GraphPad Software, La Jolla Calif.). In all cases, fluorescence values for blank reactions (limiting dNTP omitted) were subtracted to give normalized fluorescence units (NFU) to account for background fluorescence.
The assay employs a DNA polymerase-based approach utilizing an oligonucleotide template with 3 distinct regions: a 3′ primer binding region, a mid-template dUTP/thymidine triphosphate (TTP) detection region and a 5′ 6-Flavin adenine mononucleotide (FAM)-labeled probe binding region that incorporates a black hole quenching moiety.
reaction, the probe and primer hybridize to the oligonucleotide template to form the template:primer:probe complex. When Taq polymerase binds to the primer in the TPP complex and dUTP is present, successful extension of the nascent strand occurs and the inherent 5′ to 3′ exonuclease activity of Taq polymerase cleaves and displaces the 6-FAM-labeled probe in a 5′ to 3′ direction, releasing the 6-FAM fluorophore from its proximity to the three quenchers.

[11] = system: HCT-8 colorectal cell line model; assay: Colony formation assay, HCT-8; format: cell-based; settings: HCT-8, increasing concentrations of compound plus fixed 1 μmol/L FUdR, vs single agents
Method: as §2
Colony forming assays were subsequently performed to evaluate the effectiveness of additional PCI compounds alone and in combination with FUdR at reducing cancer cell viability in the HCT-8 colorectal cell line model. […] Subsequently, increasing concentrations of PCI compounds were combined with a fixed dose of 1 μmol/L FUdR to evaluate the combined drug effect.

C[C@@H](NS(=O)(=O)CC/C=C/CC1CCC(=O)NC1=O)c1cccc(OCC2CC2)c1 (mixture of isomers) [PCI 10213]
viability, combination with FUdR (HCT116 cells [1]; HCT116, 50 μmol/L compound plus FUdR): complete loss of viability | colonies, all combinations with FUdR (HCT116 cells [1]; HCT116, 3.1 to 50 μmol/L compound plus 0.5 μmol/L FUdR): strong synergistic reduction in colonies | reduction of colony formation, combination with FUdR (HCT116 cells [1]; HCT116, 12.5 and 25 μmol/L compound plus 0.5 μmol/L FUdR): > 95% | number of colonies formed, single agent (HCT116 cells [1]; HCT116, PCI 10213 3.1 to 50 μmol/L or FUdR 0.5 μmol/L alone): neither PCI 10213 or the fixed dose of FUdR single agent had any significant effect on the number of colonies formed | reduction of colony formation, combination with FUdR (SW620 cells [2]; SW620 (strongly FUdR-resistant), 12.5 and 25 μmol/L compound plus FUdR (0.5 μmol/L in the sentence)): > 50% | colonies, all combinations with FUdR (SW620 cells [2]; SW620, 3.1 to 50 μmol/L compound plus 1 μmol/L FUdR): strong synergistic reduction in colonies | number of colonies formed, single agent (SW620 cells [2]; SW620, PCI 10213 3.1 to 50 μmol/L or FUdR 1 μmol/L alone): neither PCI 10213 or the fixed dose of FUdR single agent had any significant effect on the number of colonies formed | reduction of cell viability, combination with FUdR (A549 cells [3]): > 95% | reduction of cell viability, combination with FUdR (H460 cells): > 95% | number of colonies formed, compound alone ([4]; 3.1 to 25 μmol/L single agent): no significant effects on the number of colonies formed | colonies formed, combination with FUdR [5]: highly significant reductions in colonies formed | growth inhibition as a single agent (HCT116 cells [6]; HCT116, 25 μmol/L single agent): no detectable effect on growth inhibition | decrease in growth / reduction in proliferation (HCT116 cells [6]; HCT116, 72 hours, 100 μmol/L single agent): 28% | single agent activity (growth inhibition vs vehicle) (HCT116 cells [6]; HCT116, 72 hours): little to no single agent activity | combined effect with 5-FU on growth inhibition (HCT116 cells [6]; HCT116, fixed 25 μmol/L compound plus increasing 5-FU, up to 25 μmol/L 5-FU): additive and synergistic increases in growth inhibition | inhibition at 1.3 µM ([7]; 1.3 μmol/L compound): 4.7% | inhibition at 2.6 µM ([7]; 2.6 μmol/L compound): 9.6% | inhibition at 5.2 µM ([7]; 5.2 μmol/L compound): 14.5% | inhibition at 10.4 µM ([7]; 10.4 μmol/L compound): 24.9% | inhibition at 20.8 µM ([7]; 20.8 μmol/L compound): 30% | inhibition at 41.7 µM ([7]; 41.7 μmol/L compound): 45.5% | inhibition at 83.3 µM ([7]; 83.3 μmol/L compound): 54.6% | decrease in growth / reduction in proliferation (A549 cells [8]): ~25% | growth inhibition as a single agent (SW620 cells [9]; SW620, 25 μmol/L single agent): no detectable effect on growth inhibition | single agent activity / decrease in proliferation (SW620 cells [9]): ~30% | single agent activity (growth inhibition vs vehicle) (SW620 cells [9]): neither PCI 10213 or 10214 had any single agent activity | combined effect with 5-FU on growth inhibition (SW620 cells [9]; SW620, fixed 25 μmol/L compound plus increasing 5-FU, up to 25 μmol/L 5-FU): additive and synergistic increases in growth inhibition | decrease in cell proliferation (H1299 cells): 40% | IC50 [10]: 7.2 µM | inhibition at 1.3 µM ([10]; 1.3 umol/L compound): 28% | inhibition at 2.6 µM ([10]; 2.6 umol/L compound): 31.6% | inhibition at 5.2 µM ([10]; 5.2 umol/L compound): 40.9% | inhibition at 10.4 µM ([10]; 10.4 umol/L compound): 60.3% | inhibition at 20.8 µM ([10]; 20.8 umol/L compound): 64.5% | inhibition at 41.7 µM ([10]; 41.7 umol/L compound): 73.8% | % Inhibition ([10]; 83.3 umol/L compound): 86.1% | inhibition at 83.3 µM ([10]; 83.3 umol/L compound): 86%

O=c1[nH]cc(F)c(=O)[nH]1 [5-FU, 5-fluorouracil, reference compound]
growth inhibition, 5-FU alone (HCT116 cells [6]; HCT116, 0 to 100 μmol/L): dose-dependent increases in growth inhibition | growth inhibition, 5-FU alone (SW620 cells [9]; SW620, 0 to 100 μmol/L): dose-dependent increases in growth inhibition

C[C@@H](NS(=O)(=O)CC/C=C/CC1SC(=O)NC1=O)c1cccc(OCC2CC2)c1 (stereo partly drawn) [PCI 10214]
single agent activity (growth inhibition vs vehicle) (HCT116 cells [6]; HCT116, 72 hours): little to no single agent activity | decrease in growth / reduction in proliferation (A549 cells [8]): ~25% | single agent activity / decrease in proliferation (SW620 cells [9]): ~30% | single agent activity (growth inhibition vs vehicle) (SW620 cells [9]): neither PCI 10213 or 10214 had any single agent activity | decrease in cell proliferation (H1299 cells): ≤ 40%

CC[C@@](O)(Cn1nncc1CCCNC1CCC(=O)NC1=O)c1ccc(F)c(OCC2CC2)c1 (stereo partly drawn) [PCI 10927]
colonies formed / combined drug effect with FUdR [11]: Substantial reductions in colonies formed

CC[C@@](O)(Cn1nncc1CCCCc1cnc2c(c1)CCC(=O)N2)c1ccc(F)c(OCC2CC2)c1 [PCI 10928]
colonies formed / combined drug effect with FUdR [11]: Substantial reductions in colonies formed

CC[C@@](O)(Cn1nncc1CCCCC1Cc2cccc(OC)c2NC1=O)c1ccc(F)c(OCC2CC2)c1 (stereo partly drawn) [PCI 10929]
colonies formed / combined drug effect with FUdR [11]: Substantial reductions in colonies formed

CC[C@@](O)(Cn1nncc1CCCCC1C(=O)Nc2ncccc21)c1ccc(F)c(OCC2CC2)c1 (stereo partly drawn) [PCI 10930]
colonies formed / combined drug effect with FUdR [11]: Substantial reductions in colonies formed

CC[C@@](O)(Cn1nncc1CCCCNC1(C)CCC(=O)NC1=O)c1ccc(F)c(OCC2CC2)c1 (stereo partly drawn) [PCI 10933]
colonies formed / combined drug effect with FUdR [11]: Substantial reductions in colonies formed

CC[C@@](O)(Cn1nncc1CCCCn1ccc(=O)[nH]c1=O)c1ccc(F)c(OCC2CC2)c1 [PCI 10950, reference compound]
colonies formed / combined drug effect with FUdR [11]: strong synergy | combined drug effect with fixed doses of FUdR ([4]; all cell lines examined (cell lines not named at b507)): strong synergy

CC[C@@](O)(Cn1nncc1CCCCC1CCC(=O)NC1=O)c1ccc(F)c(OCC2CC2)c1 (stereo partly drawn) [PCI 10951]
colonies formed, combination with FUdR (HCT116 cells [1]): Substantial reductions in colonies formed | colonies formed / combined drug effect with FUdR [11]: Substantial reductions in colonies formed

CC[C@@](O)(Cn1nncc1CCCCCC1CCC(=O)NC1=O)c1ccc(F)c(OCC2CC2)c1 (stereo partly drawn) [PCI 10952]
colonies formed, combination with FUdR (HCT116 cells [1]): modest reductions in colonies formed
